Assay results taken from PMC5011932, “Comparative pharmacokinetics and pharmacodynamics of intravenous artelinate versus artesunate in uncomplicated Plasmodium coatneyi-infected rhesus monkey model” (Malaria Journal, 2016).
Where “and” joins values, the source holds several entries; their conditions need not be identical. Equal values may be shown once. Read-outs that look alike come from different tables or passages of the source.

Key:
[1] = rhesus monkey, in vivo
Description: (§1) These doses were chosen as the minimal effective doses (from previous model development and validation studies, unpublished data) and blood was collected for pharmacokinetic analysis. After a week wash-out and recovery period, P. coatneyi (1 mL of >50,000 parasitized RBCs per microlitre or 5 × 10^6 RBC with a 1 % parasitaemia) were inoculated from a donor monkey into all the monkeys. The treatment was initiated at day 6 after inoculation at a parasitaemia ≥3 % or >200,000 parasites μL^−1 when the cohort of animals was minimally symptomatic. Drugs were given for 3 days with a loading dose initially followed by ½ of the first dose on the 2nd and 3rd days.
(§2) Blood was collected for pharmacokinetic/pharmacodynamics (PK/PD) analysis after the first dose only due to rapid clearance of artemisinin derivatives. Heparinized blood was collected at 0, 5, 20, 40 min, 1, 3, and 6 h post-dose and plasma samples were separated within 2 h by centrifugation (1500g, 10 min). Aliquots of samples were made for simultaneous measurement by HPLC [16] and bioassay [14], and stored at −80 °C until analysis. All glassware was silanized before use with a 0.5 % aqueous solution (v/v) of Pierce Aquasil (Rockford, IL, USA) according to the manufacturer’s recommended procedure. Solid-phase extraction was performed on C-18 elution cartridge (3.0 ml, J.T. Baker Co.) using a VAC ELUTE SPS24 sample processing station (Analytichem International, Harbour City, CA, USA). The cartridge was preconditioned by sequential washing with 2.5 ml acetonitrile, 2.5 ml methanol and 2.5 ml water. One ml of distilled water was added to the cartridge before adding plasma sample (0.5 ml). Then, the cartridge was washed with 2.5 ml distilled water, 2.5 ml of 0.05 % H3PO4 (pH 4.5) and 2.5 ml of 20 % acetonitrile and completely dried by closing the vacuum for 15 min. The analytes were collected by eluting with 0.5 ml methanol three times and then with 0.5 ml 90:10 n-butyl chloride: ethyl acetate twice. The organic phases were pooled. The combined organic phases were then evaporated to dryness under a stream of nitrogen at room temperature. Extraction residues were reconstituted with 50:50 ethanol: water (0.3 ml), at least 16 h before injection. The injection volume was 100 µl for all samples.
(§3) The plasma concentration of parent drugs, AL and AS, and their primary metabolites, DHA and 2-hydroxyartelinate (OHAL) respectively, were measured by HPLC with electrochemical detection in reductive mode (HPLC-ECD) [16], which was the only method for artemisinin compounds then (Additional files 1 and 2).
(§4) HPLC with reductive electrochemical detection was performed using a model BAS 200B liquid chromatography (Bioanalytical Systems, Inc., West Lafayette, Indiana, USA). A Nova-Pak® C18 (3.9 × 150 mm, Waters Corporation, Milford, MA, USA) was used with 40 % acetonitrile in sodium acetate buffer (pH 3.6) as mobile phase. Detection was performed using a thin dual-layer glassy carbon electrode run in parallel mode at a potential of −1.0 V versus Ag/AgCl. The system was operated at the following temperatures: mobile phase 35 °C, column and detector oven 30 °C, cell 31 °C with the flow rate of 1.5 mL min^−1. Artemisinin (ART) was used as an internal standard. Samples were injected via Gilson model 231 XL sampling injector equipped with a 100 µL loop, a Gilson model 401 dilutor/pipettor, a sampler controller keypad (Gilson Medical Electronics, Middleton, WI, USA), and a Valco electrically actuated switching valve (Valco Instrument Co. Inc) was used. This system automatically deoxygenated and injected sample, which permits the high sample throughput associated with automated injection. Data were acquired and analysed using a Millennium^32 Chromatography Manager (Waters Corporation, Milford, MA, USA).

[2] = Plasma pharmacokinetics by HPLC-ECD after IV dose in rhesus monkeys; details: for concentration at 0.08 h / concentration at 0.33 h / concentration at 0.67 h / concentration at 1 h / concentration at 3 h / concentration at 6 h: intravenous, 8 mg kg^-1, Plasma concentration; for AUC(0-t): AUC 0-20, mean; for half-life: t 1/2, z
Description: as §1, §2, §3, §4

P. falciparum clone (W2) = experiment: Ex vivo Plasmodium falciparum-based bioassay (BA) of rhesus plasma, effect kinetics (ePD) as DHA equivalents; format: cell-based; details: for Bioactivity %AUC20 / Bioactivity Cl: mean
Description: Blood was collected for pharmacokinetic/pharmacodynamics (PK/PD) analysis after the first dose only due to rapid clearance of artemisinin derivatives. Heparinized blood was collected at 0, 5, 20, 40 min, 1, 3, and 6 h post-dose and plasma samples were separated within 2 h by centrifugation (1500g, 10 min). Aliquots of samples were made for simultaneous measurement by HPLC [16] and bioassay [14], and stored at −80 °C until analysis.
The plasma anti-malarial activities of the artemisinin derivatives were measured using a previously published method [14]. […] After centrifugation, the supernatant (100 µL) was transferred to a 96-well flat bottom plate. Twofold serial dilutions were then made using heat inactivated pooled control serum (human:rhesus = 1:1). A suspension of malaria (W2 clone) infected erythrocytes was added to each well. The microtitre plate was placed into a gas-tight plexiglass chamber, flushed with a gas mixture of 90 % CO2, 5 % O2, and 5 % N2, and placed into an incubator (37 °C). Following 24 h incubation, the plate was removed from the chamber and pulsed with [^3H]-hypoxanthine solution to each well and incubated for another 18–20 h before harvesting. The incorporation of [^3H]-hypoxanthine by the parasites in each well was determined by counting in a scintillation counter.
A dose–response curve for each plasma sample was constructed by plotting [^3H]-hypoxanthine uptake on the Y-axis against the corresponding dilution factor on the X-axis after logarithmic transformation. The dilution factor value that inhibits parasite growth by 50 % (DF50) of each plasma sample was determined.

[3] = Deaths and tolerability in P. coatneyi-infected rhesus monkeys; format: in vivo, rhesus macaques (Macaca mulatta); details: for Deaths: infected rhesus, IV AL 11.8 mg kg^−1
Plasmodium coatneyi = experiment: In vivo pharmacodynamics (parasite clearance) in uncomplicated P. coatneyi-infected splenectomized rhesus monkey model
Description: Twenty-two adult colony-born, Indian-origin rhesus macaques (Macaca mulatta) naïve monkeys were splenectomized and recovered well more than 1 month prior to entering the study. […] Twenty-two animals were randomized to two experiments of 11 monkeys. […] The control monkeys received intramuscular quinine treatment and the experimental animals received intravenous artemisinin candidates.
Based on our previous model validation, blood smears were performed to detect malaria parasites starting prior to inoculation on day 0 and continued daily (0700–0800 h). The monkeys were physically restrained in the squeeze cage restraint apparatus and approximately 0.1–0.2 ml whole blood was collected from each monkey by lancet puncture of the lateral auricular vein. Thick and thin smears were made on the same microscope glass slide and subsequently fixed in methanol and stained with Giemsa. When the smears were positive, white blood cell count (WBC) and/or red blood cell count (RBC) were also performed using automated haematology analyzer Sysmex K800 to calculate parasite density. Haematocrits were checked as needed. At study days 6–12, additional blood samples were obtained from all animals in the afternoon (1500–1600 h) to monitor parasitaemia levels. Daily blood smears were continued until two consecutive days with negative smears. Then the smear monitoring schedule was reduced to two times weekly for 2 weeks and then weekly for 6 weeks after completion of the last treatment.
Blood smear staining and parasitaemia determination took about 2 h. […] The control monkey received quinine treatment and the ten experimental animals received intravenous artemisinin derivative candidate.
After a week wash-out and recovery period, P. coatneyi (1 mL of >50,000 parasitized RBCs per microlitre or 5 × 10^6 RBC with a 1 % parasitaemia) were inoculated from a donor monkey into all the monkeys. The treatment was initiated at day 6 after inoculation at a parasitaemia ≥3 % or >200,000 parasites μL^−1 when the cohort of animals was minimally symptomatic. Drugs were given for 3 days with a loading dose initially followed by ½ of the first dose on the 2nd and 3rd days.
Blood smear were collected once daily in the morning. Once positive parasitaemia was observed and reached 2000 parasites μL^−1, blood smears were collected twice, in the morning and afternoon. Blood for slides preparation were collected from ear for thick and thin smear preparation. Blood films on glass slides were air dried, fixed with 100 % methanol, stained with Giemsa, and read under ×100 magnification oil emersion for parasite determination.
First, a thick smear was performed for parasite detection by reading the slides at least 50 fields under ×100 magnification oil emersion.

[4] = set-up: method as in PMID 16860356, PMID 16126619; details: rats; cited from earlier work
[5] = DHA equivalents, infected rhesus

2-hydroxyartelinate [OHAL]
t1/2, metabolite (M) [1]: 42.2 min

C[C@H]1[C@@H](O)O[C@@H]2O[C@@]3(C)CC[C@H]4[C@H](C)CC[C@@H]1[C@@]24OO3 [DHA, dihydroartemisinin]
Time of highest level post-dose ([2]; after IV AS): 5 min
%AUC20 ([2]; mean, healthy rhesus): 23.8%
%AUC20 ([2]; mean, infected rhesus): 27.0%
concentration at 0.08 h ([2]; rhesus monkey, plasma, mean, 0.08 h, healthy rhesus, after IV AL 11.8 or AS 8.0 mg/kg): 7.89 µM
concentration at 0.08 h ([2]; rhesus monkey, plasma, mean, 0.08 h, infected rhesus, after IV AL 11.8 or AS 8.0 mg/kg): 6.74 µM
concentration at 0.33 h ([2]; rhesus monkey, plasma, mean, 0.33 h, healthy rhesus): 6.75 µM
concentration at 0.33 h ([2]; rhesus monkey, plasma, mean, 0.33 h, infected rhesus): 5.92 µM
concentration at 0.67 h ([2]; rhesus monkey, plasma, mean, 0.67 h, healthy rhesus): 4.51 µM
concentration at 0.67 h ([2]; rhesus monkey, plasma, mean, 0.67 h, infected rhesus): 4.21 µM
concentration at 1 h ([2]; rhesus monkey, plasma, mean, 1.0 h, healthy rhesus): 3.52 µM
concentration at 1 h ([2]; rhesus monkey, plasma, mean, 1.0 h, infected rhesus): 2.68 µM
concentration at 3 h ([2]; rhesus monkey, plasma, mean, 3.0 h, healthy rhesus): 0.31 µM
concentration at 3 h ([2]; rhesus monkey, plasma, mean, 3.0 h, infected rhesus): 0.16 µM
concentration at 6 h ([2]; rhesus monkey, plasma, mean, 6.0 h, healthy rhesus): 0 nM
concentration at 6 h ([2]; rhesus monkey, plasma, mean, 6.0 h, infected rhesus): 0 nM
AUC(0-t) ([2]; rhesus monkey, plasma, iv, 8 mg/kg, healthy rhesus): 2.17 µM·h
AUC(0-t) ([2]; rhesus monkey, plasma, iv, 8 mg/kg, infected rhesus): 1.87 µM·h
AUC(0-inf) ([2]; rhesus monkey, plasma, iv, 8 mg/kg, AUC(0-inf), mean, healthy rhesus): 9.28 µM·h
AUC(0-inf) ([2]; rhesus monkey, plasma, iv, 8 mg/kg, AUC(0-inf), mean, infected rhesus): 7.45 µM·h
Cmax ([2]; rhesus monkey, plasma, iv, 8 mg/kg, Cmax, mean, P. coatneyi infected rhesus, IV AL/Lys 11.8 or AS/Na 8 mg/kg, analyte = label): 6.85 µM
Cmax ([2]; rhesus monkey, plasma, iv, 8 mg/kg, Cmax, mean, healthy rhesus, IV AL/Lys 11.8 or AS/Na 8 mg/kg, analyte = label): 8.1 µM
half-life ([2]; rhesus monkey, plasma, iv, 8 mg/kg, mean, healthy rhesus): 35.9 min
half-life ([2]; rhesus monkey, plasma, iv, 8 mg/kg, mean, infected rhesus): 30 min

CC1CCC2C(C)C(OCc3ccc(C(=O)O)cc3)OC3OC4(C)CCC1C32OO4.CC1CCC2C(C)C(OCc3ccc(C(=O)O)cc3)OC3OC4(C)CCC1C32OO4.O (stereo not drawn) [IV AL, 4-(10′ dihyro-artemisinin-oxymethyl) benzoic acid hemihydrate]
Antimalarial activity expressed as DHA equi., mean (P. falciparum clone (W2); 0.08 h, healthy rhesus): 5.69 µmol/L
Antimalarial activity expressed as DHA equi., mean (P. falciparum clone (W2); 0.08 h, infected rhesus): 7.58 µmol/L
Antimalarial activity expressed as DHA equi., mean (P. falciparum clone (W2); 0.33 h, healthy rhesus): 4.09 µmol/L
Antimalarial activity expressed as DHA equi., mean (P. falciparum clone (W2); 0.33 h, infected rhesus): 5.32 µmol/L
Antimalarial activity expressed as DHA equi., mean (P. falciparum clone (W2); 0.67 h, healthy rhesus): 2.56 µmol/L
Antimalarial activity expressed as DHA equi., mean (P. falciparum clone (W2); 0.67 h, infected rhesus): 3.58 µmol/L
Antimalarial activity expressed as DHA equi., mean (P. falciparum clone (W2); 1.0 h, healthy rhesus): 1.75 µmol/L
Antimalarial activity expressed as DHA equi., mean (P. falciparum clone (W2); 1.0 h, infected rhesus): 2.58 µmol/L
Antimalarial activity expressed as DHA equi., mean (P. falciparum clone (W2); 3.0 h, healthy rhesus): 0.07 µmol/L
Antimalarial activity expressed as DHA equi., mean (P. falciparum clone (W2); 3.0 h, infected rhesus): 0.19 µmol/L
Antimalarial activity expressed as DHA equi., mean (P. falciparum clone (W2); 6.0 h, healthy rhesus): 0 µmol/L
Antimalarial activity expressed as DHA equi., mean (P. falciparum clone (W2); 6.0 h, infected rhesus): 0 µmol/L
AUC0–20, ePD (P. falciparum clone (W2); [5]): 115 µM·min
AUC0–∞, ePD (P. falciparum clone (W2); [5]): 426 µM·min
Bioactivity %AUC20 (P. falciparum clone (W2); healthy rhesus): 31.7%
Bioactivity Cl (P. falciparum clone (W2); healthy rhesus): 4.75 L hr^-1 kg ^-1
Bioactivity %AUC20 (P. falciparum clone (W2); infected rhesus): 27.7%
Bioactivity Cl (P. falciparum clone (W2); infected rhesus): 3.08 L hr^-1 kg ^-1
Deaths [3]: two deaths in the infected animals within 2.5 h
Deaths ([3]; listed as AL): two died following AL regimen before parasite clearance
Tolerability ([3]; other animals in the experiment): well tolerated by the other animals
Parasite/µL, mean (Plasmodium coatneyi; 0.29 day post-dose): 704,770 Parasite/µL
Parasite Reduction (Plasmodium coatneyi; 0.29 day post-dose, IV AL experiment (mean; IM QN = its control monkey)): 20.4%
Parasite/µL, mean (Plasmodium coatneyi; 1.00 day post-dose): 124,294 Parasite/µL
Parasite Reduction (Plasmodium coatneyi; 1.00 day post-dose, IV AL experiment): 82.2%
Parasite/µL, mean (Plasmodium coatneyi; 1.29 day post-dose): 32,703 Parasite/µL
Parasite Reduction (Plasmodium coatneyi; 1.29 day post-dose, IV AL experiment): 95.2%
Parasite/µL, mean (Plasmodium coatneyi; 2.00 day post-dose): 6,978 Parasite/µL
Parasite Reduction (Plasmodium coatneyi; 2.00 day post-dose, IV AL experiment): 98.9%
Parasite/µL, mean (Plasmodium coatneyi; 2.29 day post-dose): 3,976 Parasite/µL
Parasite Reduction (Plasmodium coatneyi; 2.29 day post-dose, IV AL experiment): 99.4%
Parasite/µL, mean (Plasmodium coatneyi; 3.00 day post-dose): 895 Parasite/µL
Parasite Reduction (Plasmodium coatneyi; 3.00 day post-dose, IV AL experiment): 99.9%
Parasite/µL, mean (Plasmodium coatneyi; 3.29 day post-dose): 377 Parasite/µL
Parasite Reduction (Plasmodium coatneyi; 3.29 day post-dose, IV AL experiment): 99.9%
Parasite/µL, mean (Plasmodium coatneyi; 4.00 day post-dose): 568 Parasite/µL
Parasite Reduction (Plasmodium coatneyi; 4.00 day post-dose, IV AL experiment): 99.9%
Parasite/µL, mean (Plasmodium coatneyi; 4.29 day post-dose): 8,704 Parasite/µL
Parasite Reduction (Plasmodium coatneyi; 4.29 day post-dose, IV AL experiment): 98.5%
Parasite/µL, mean (Plasmodium coatneyi; 5.00 day post-dose): 2,880 Parasite/µL
Parasite Reduction (Plasmodium coatneyi; 5.00 day post-dose, IV AL experiment): 99.5%
Parasite/µL, mean (Plasmodium coatneyi; 5.29 day post-dose): 1,141 Parasite/µL
Parasite Reduction (Plasmodium coatneyi; 5.29 day post-dose, IV AL experiment): 99.8%
Parasite/µL, mean (Plasmodium coatneyi; 6.00 day post-dose): 18,619 Parasite/µL
Parasite Reduction (Plasmodium coatneyi; 6.00 day post-dose, IV AL experiment): 96.8%
Parasite/µL, mean (Plasmodium coatneyi; 6.29 day post-dose): 92,458 Parasite/µL
Parasite Reduction (Plasmodium coatneyi; 6.29 day post-dose, IV AL experiment): 84.4%
Parasite/µL, mean (Plasmodium coatneyi; 7.00 day post-dose): 51,036 Parasite/µL
Parasite Reduction (Plasmodium coatneyi; 7.00 day post-dose, IV AL experiment): 91.4%
PCT of individual animals (Plasmodium coatneyi; IV AL: the only two determinable, IV AS: the two most rapid): 5.3 days and 4.0 days
Recrudescence, median (range, n) (Plasmodium coatneyi; in vivo): 6.5 (6–7, 2) days
R, Day (recrudescence day), mean (Plasmodium coatneyi; n 2 IV AL, n 10 IV AS): 6.50 days
Treatment failure (Plasmodium coatneyi; parasite counts never reached zero): Six animals failed treatment
PC50 (Plasmodium coatneyi; range in evaluable animals (4 of 8 IV AL, 3 of 10 IV AS)): 2.72 to 10.9 h
toxicity [4]: more toxic than AS
Plasma concentration, mean ([2]; 0.08 h, healthy rhesus, after IV AL 11.8 or AS 8.0 mg/kg): 61.58 µM
Plasma concentration, mean ([2]; 0.08 h, infected rhesus, after IV AL 11.8 or AS 8.0 mg/kg): 62.96 µM
Plasma concentration, mean ([2]; 0.33 h, healthy rhesus): 43.27 µM
Plasma concentration, mean ([2]; 0.33 h, infected rhesus): 46.68 µM
Plasma concentration, mean ([2]; 0.67 h, healthy rhesus): 26.12 µM
Plasma concentration, mean ([2]; 0.67 h, infected rhesus): 26.79 µM
Plasma concentration, mean ([2]; 1.0 h, healthy rhesus): 16.73 µM
Plasma concentration, mean ([2]; 1.0 h, infected rhesus): 21.04 µM
Plasma concentration, mean ([2]; 3.0 h, healthy rhesus): 0.68 µM
Plasma concentration, mean ([2]; 3.0 h, infected rhesus): 1.24 µM
Plasma concentration, mean ([2]; 6.0 h, healthy rhesus): 0 µM
Plasma concentration, mean ([2]; 6.0 h, infected rhesus): 0.05 µM
DHA in plasma after IV AL ([2]; healthy or infected monkeys): no DHA was found in plasma
AUC0–20, parent drug ([2]; infected rhesus): 925 µM·min
AUC0–∞, parent drug ([2]; infected rhesus): 3706 µM·min
Cmax ([2]; mean, P. coatneyi infected rhesus, IV AL/Lys 11.8 or AS/Na 8 mg/kg, analyte = label): 61.5 µM
%AUC20 ([2]; mean, healthy rhesus): 33.4%
AUC 0-20 ([2]; mean, healthy rhesus): 940 µmol·min/L
AUC(0-inf) ([2]; mean, healthy rhesus): 3,039 µmole min L^-1
Cl ([2]; mean, healthy rhesus): 0.45 L hr^-1 kg ^-1
Vz ([2]; mean, healthy rhesus): 0.26 L kg ^-1
t 1/2, z ([2]; mean, healthy rhesus): 25.3 min
Cmax ([2]; mean, healthy rhesus, IV AL/Lys 11.8 or AS/Na 8 mg/kg): 61.6 µM
%AUC20 ([2]; mean, infected rhesus): 31.5%
AUC 0-20 ([2]; mean, infected rhesus): 954 µmol·min/L
AUC(0-inf) ([2]; mean, infected rhesus): 3,392 µmole min L^-1
Cl ([2]; mean, infected rhesus): 0.43 L hr^-1 kg ^-1
Vz ([2]; mean, infected rhesus): 0.28 L kg ^-1
t 1/2, z ([2]; mean, infected rhesus): 29.6 min
Vz, parent ([2]; median, infected rhesus): 0.259 L/kg
% AUC0–20 / AUC0–∞ ([2]; parent drug, infected rhesus): 24.6%
Cmax ([2]; read-out: Cmax, parent drug, infected rhesus): 60.2 µM
